Experimental data from patent publication US8168193B2, “Molecules, compositions, methods and kits for applications associated with flaviviruses” (National University of Singapore, priority 2003, dated 2012).
No end group written: not given here.

B1: Papain (protein, UniProt P00784 134-345, looked up)
Papain: IPEYVDWRQKGAVTPVKNQGSCGSCWAFSAVVTIEGIIKIRTGNLNEYSEQELLDCDRRSYGCNGGYPWSALQLVAQYGIHYRNTYPYEGVQRYCRSREKGPYAAKTDGVRQVQPYNEGALLYSIANQPVSVVLEAAGKDFQLYRGGIFVGPCGNKVDHAVAAVGYGPNYILIKNSWGTGWGENGYIRIKRGTGNSYGVCGLYTSSFYPVKN
notes: Papain (EC 3.4.22.2) from Carica papaya, a cysteine endopeptidase
B2: Endoglycosidase H (protein, UniProt P04067 43-313, looked up)
Endo-beta-N-acetylglucosaminid …: APAPVKQGPTSVAYVEVNNNSMLNVGKYTLADGGGNAFDVAVIFAANINYDTGTKTAYLHFNENVQRVLDNAVTQIRPLQQQGIKVLLSVLGNHQGAGFANFPSQQAASAFAKQLSDAVAKYGLDGVDFDDEYAEYGNNGTAQPNDSSFVHLVTALRANMPDKIISLYNIGPAASRLSYGGVDVSDKFDYAWNPYYGTWQVPGIALPKAQLSPAAVEIGRTSRSTVADLARRTVDEGYGVYLTYNLDGGDRTADVSAFTRELYGSEAVRTP
notes: Endoglycosidase H (EC 3.2.1.96) from Streptomyces plicatus
B3: vitronectin (protein, UniProt P04004 20-478, looked up)
Vitronectin: DQESCKGRCTEGFNVDKKCQCDELCSYYQSCCTDYTAECKPQVTRGDVFTMPEDEYTVYDDGEEKNNATVHEQVGGPSLTSDLQAQSKGNPEQTPVLKPEEEAPAPEVGASKPEGIDSRPETLHPGRPQPPAEEELCSGKPFDAFTDLKNGSLFAFRGQYCYELDEKAVRPGYPKLIRDVWGIEGPIDAAFTRINCQGKTYLFKGSQYWRFEDGVLDPDYPRNISDGFDGIPDNVDAALALPAHSYSGRERVYFFKGKQYWEYQFQHQPSQEECEGSSLSAVFEHFAMMQRDSWEDIFELLFWGRTSAGTRQPQFISRDWHGVPGQVDAAMAGRIYISGMAPRPSLAKKQRFRHRNRKGYRSQRGHSRGRNQNSRRPSRATWLSLFSSEESNLGANNYDDYRMDWLVPATCEPIQSVFFFSGDKYYRVNLRTRRVDTVDPPYPRSIAQYWLGCPAPGHL
notes: ECM protein, physiological ligand for integrin αVβ3

Columns and labels:
Dengue virus = test: Competitive inhibition of Dengue virus entry into Vero cells with soluble recombinant WNV envelope DIII; format: cell-based; conditions: at high concentration used
Description: (§1) Vero cells were first incubated with different concentration (5 to 100 μg/ml) of DIII protein or BSA for 30 min at 37° C. Excess or unbound protein is removed by washing thrice with PBS. Radiolabeled WNV or Dengue virus (250 plaque forming unit, PFU) is added and incubated for 1 h at 37° C. Virus entry into Vero cells was determined by radioactive counts from a scintillation counter.

WNV [1] = test: Competitive inhibition of WNV entry into Vero cells with soluble recombinant WNV envelope DIII; format: cell-based, West Nile virus; conditions: 5 to 100 μg/ml, 30 min at 37° C.
Description: as §1

WNV [2] = conditions: Vero cells, EDTA 3-12 mM, 2 hrs at 37° C.
[3] = system: 105-kDa cell receptor protein; test: Virus Overlay Protein Binding Assay (VOPBA) on Vero plasma membrane proteins; conditions: for West Nile virus binding to treated membrane proteins of Vero cells (VOPBA): Vero plasma membrane proteins; for West Nile virus binding after removal of papain (VOPBA): Vero cells, papain 50 mU/ml 45 minutes, 0, 2 and 4 hours after removal, with or without cycloheximide 100 μg/ml
West Nile virus [4] = test: Protease, phospholipase, glycosidase, periodate and lectin pretreatment of Vero cells, then West Nile virus infection, plaque assay; format: cell-based; conditions: Vero cells pretreated 45 min at 25° C.; for effect of pretreatment of Vero cells on West Nile virus entry/infection: plaque assay at 12 hours p.i.
Description: Cell monolayers (Vero cells or N2A) of approximately 5×10^6 cells were washed twice with phosphate buffer saline (PBS) before enzyme treatment. Cell monolayers were incubated with the proteases and phospholipases, glycosidases and lectins (as listed below) in PBS at a pH of 7.0 for 45 min at 25° C. […] Cell monolayers were then incubated with West Nile virus (MOI=10) at 37° C. for 1 hour. Excess virus particles were inactivated with sodium citrate buffer (pH 2.8) for 10 minutes and the cell monolayer washed twice with PBS. Vero cells were then incubated at 37° C. for 12 hours. At 12 hours p.i., virus titers from the treated samples were determined by plaque assays. Three independent experiments were conducted for each set of enzymes used.
The enzymes used were; Proteases: Proteinase K (EC 3.4.21.64) from Tritirachium album, concentration of 10 μg/ml, 1 μg/ml & 0.1 μg/ml; α-chymotrypsin (EC 3.4.21.1) from bovine pancreas, concentration of 10 μg/ml & 1 μg/ml; trypsin (EC 3.4.21.4) from bovine pancreas, concentration of 10 μg/ml, 1 μg/ml & 0.1 μg/ml; Bromelain (EC 3.4.22.32) from pineapple stem, concentration of 20 mUnit/ml, 2 mUnit/ml & 0.2 mUnit/ml; Papain (EC 3.4.22.2) from Carica papaya, concentration of 50 mUnit/ml & 10 mUnit/ml. Phospholipases: Phospholipase A2 (EC 3.1.1.4) from bovine pancreas, concentration of 1 UNIT/ml & 0.1 UNIT/ml; Phospholipase C (EC 3.1.1.4.3) from Clostridium perfringes, concentration of 10 UNIT/ml & 1 UNIT/ml; Phospholipase D (EC 3.1.4.4) from peanut, concentration of 100 UNIT/ml & 10 UNIT/ml; Glycosidases: Endoglycosidase H (EC 3.2.1.96) from Streptomyces plicatus, concentration of 100 mUNIT/ml & 10 mUNIT/ml; O-glycosidase (EC3.2.1.97) from Diploccus pneumoniae, concentration of 1 mUNIT/ml & 0.1 mUNIT/ml; α-mannosidase (EC 3.2.1.24) from almonds, concentration of 1000 μ/ml, 100 μg/ml & 10 μg/ml; α-Fucosidase (EC 3.2.1.11) from almond meal, concentration of 100 mUNIT/ml & 10 mUNIT/ml; Heparinase I (EC 4.2.2.7) and Heparinase III (EC 4.2.2.2.8) from Flavobacterium heparinum, concentration of 1 UNIT/ml & 0.1 UNIT/ml. Lectins: Concanavalin-A from Jack bean, wheat germ agglutinin from Triticum vulgaris, phytohemagglutinin from Phaseolus spp., concentration of 1000 μg/ml & 100 μg/ml; Sodium periodate concentration of 1 mM & 0.1 mM. Cell viability after enzyme treatment was assessed by Trypan blue staining and observation under phase contrast microscope BX 60.
The enzymes or chemicals were used at concentrations known to be effective in reducing the entry of other known viruses (Borrow and Oldstone, 1992; Ramos-Castaneda et al., 1997; Salas-Benito and del Angel, 1997; Martinez-Barragan and del Angel, 2001). Results are expressed as the number of log unit inhibition with respect to untreated samples. At the same time, cell viability after treatments was also assessed by Trypan blue exclusion method.

[5] = system: 105-kDa cell receptor protein; test: Virus Overlay Protein Binding Assay (VOPBA) on N2A plasma membrane proteins
West Nile virus [6] = test: Competitive physiological ligand binding assay, virus entry into Vero cells; format: cell-based; conditions: Vero cells incubated with ligand 1 hr, then radiolabeled virus 1 hr at 37° C.
Description: Competitive physiological ligand binding assay with fibronectin, vitronectin, heparin, chrondriotin sulphate, laminin and the peptides RGD1 and RGE1 reported in the sequence listing as SEQ ID NO: 6 and SEQ ID NO:7 was carried out. In particular Vero cells were incubated with different concentrations of ECM proteins, RGD peptides, or anti-integrin antibodies at 4° C. or 37° C. for 1 hr, washed, incubated with 50 μl of radiolabeled WNV, JEV at 37° C. for 1 hr and assessed for virus entry.

Molecule | West Nile virus binding to treated membrane proteins of Vero cells (VOPBA) [3] | effect of pretreatment of Vero cells on West Nile virus entry/infection (West Nile virus [4]) | also measured
DIII protein: soluble His-tagged recombinant West Nile virus envelope domain III (350-390), comprising SEQ ID NO: 19 (SIPKLEIAGXFKDL; X: residue not identified in the source) | – | – | inhibition of entry of Dengue virus into Vero cells (Dengue virus): slightly block; inhibition of entry of WNV into Vero cells (WNV [1]): significantly blocked
O=C(O)CN(CCN(CC(=O)O)CC(=O)O)CC(=O)O [EDTA] | – | – | binding and subsequent entry of West Nile virus (WNV [2]): did not block
phytohemagglutinin | no effect | – | –
Concanavalin-A | block the binding | prevented the entry | –
O-glycosidase | did not affect | minimal effect | West Nile virus binding to treated membrane proteins of N2A cells (VOPBA) [5]: did not affect
Heparinase III | – | minimal effect | –
RGD peptide: peptide RGD1 reported in the sequence listing as SEQ ID NO: 6 (RFDS; RGD1 amino acid sequence) | – | – | inhibition of West Nile virus infection by competitive ligands (West Nile virus [6]): partial inhibition
laminin | – | – | inhibition of West Nile virus infection by competitive ligands (West Nile virus [6]): partial inhibition
α-mannosidase | No binding | significant inhibition | West Nile virus binding to treated membrane proteins of N2A cells (VOPBA) [5]: No binding
C[C@@H]1C[C@@H]([C@H](O)CC2CC(=O)NC(=O)C2)C(=O)[C@@H](C)C1 [cycloheximide] | – | – | West Nile virus binding after removal of papain (VOPBA) [3]: virus binding was also observed
fibronectin | – | – | inhibition of West Nile virus infection by competitive ligands (West Nile virus [6]): partial inhibition
Heparinase I | – | minimal effect | –
α-Fucosidase | – | minimal effect | –
[Na+].[O-][I+3]([O-])([O-])[O-] [sodium periodate] | reduced in a dosage-dependent manner | substantially reduced | –
OCCS [β-mercaptoethanol] | did not disrupt virus binding | – | West Nile virus binding to treated membrane proteins of N2A cells (VOPBA) [5]: did not disrupt virus binding
B1 | abolished | – | log unit inhibition of West Nile virus infection (West Nile virus [4]; virus titers at 12 hours p.i., with respect to untreated samples): ~5 log unit; West Nile virus binding to treated membrane proteins of N2A cells (VOPBA) [5]: abolished; West Nile virus binding after removal of papain (VOPBA) [3]: No virus binding
B2 | No binding | significant inhibition | West Nile virus binding to treated membrane proteins of N2A cells (VOPBA) [5]: No binding
B3 | – | – | inhibition of West Nile virus infection by competitive ligands (West Nile virus [6]): partial inhibition
